Assay results reported in ChEMBL document CHEMBL4385656, “Ciprofloxacin-1,2,3-triazole-isatin hybrids tethered via amide: Design, synthesis, and in vitro anti-mycobacterial activity evaluation” (Bioorg Med Chem Lett, 2019).
≈ marks a conversion by molar mass, not a printed value.

How the values were obtained:
Assay type in all cases: functional
[1] = tested on: Mycobacterium tuberculosis; test: Anti-mycobacterial activity against isoniazid and rifampicin-resistant Mycobacterium tuberculosis
[2] = tested on: Mycobacterium tuberculosis; test: Potency index, ratio of MIC for isoniazid to MIC for test compound for anti-mycobacterial activity against isoniazid and rifampicin-resistant Mycobacterium tuberculosis
[3] = tested on: Mycobacterium tuberculosis; test: Potency index, ratio of MIC for rifampicin to MIC for test compound for anti-mycobacterial activity against isoniazid and rifampicin-resistant Mycobacterium tuberculosis
[4] = tested on: Mycobacterium tuberculosis; test: Potency index, ratio of MIC for ciprofloxacin to MIC for test compound for anti-mycobacterial activity against isoniazid and rifampicin-resistant Mycobacterium tuberculosis

O=C1C(=O)N(Cc2cn(CC(=O)N3CCN(c4cc5c(cc4F)c(=O)c(C(=O)O)cn5C4CC4)CC3)nn2)c2ccccc21 was tested, and the MIC [1] was 0.12 µg/mL (≈ 0.2 µM), the Ratio [2] was “>=16” and the Ratio [3] was “>=16”. The Ratio [4] was “>=16”.

CO/N=C1/C(=O)N(Cc2cn(CC(=O)N3CCN(c4cc5c(cc4F)c(=O)c(C(=O)O)cn5C4CC4)CC3)nn2)c2c(F)cccc21 gave an MIC [1] of 32 µg/mL (≈ 49.5 µM).

CCO/N=C1/C(=O)N(Cc2cn(CC(=O)N3CCN(c4cc5c(cc4F)c(=O)c(C(=O)O)cn5C4CC4)CC3)nn2)c2ccc(C)cc21 was tested, and the MIC [1] was 32 µg/mL (≈ 48.7 µM).

For O=C1C(=O)N(Cc2cn(CC(=O)N3CCN(c4cc5c(cc4F)c(=O)c(C(=O)O)cn5C4CC4)CC3)nn2)c2c(F)cccc21, the MIC [1] was 2 µg/mL (≈ 3.24 µM).

CCO/N=C1/C(=O)N(Cc2cn(CC(=O)N3CCN(c4cc5c(cc4F)c(=O)c(C(=O)O)cn5C4CC4)CC3)nn2)c2ccc(F)cc21 was tested, and the MIC [1] was 16 µg/mL (≈ 24.2 µM).

Molecule CCO/N=C1/C(=O)N(Cc2cn(CC(=O)N3CCN(c4cc5c(cc4F)c(=O)c(C(=O)O)cn5C4CC4)CC3)nn2)c2ccccc21 has an MIC [1] of 16 µg/mL (≈ 24.9 µM).

With CO/N=C1/C(=O)N(Cc2cn(CC(=O)N3CCN(c4cc5c(cc4F)c(=O)c(C(=O)O)cn5C4CC4)CC3)nn2)c2ccc(F)cc21 the MIC [1] was 16 µg/mL (≈ 24.7 µM).

Molecule CO/N=C1/C(=O)N(Cc2cn(CC(=O)N3CCN(c4cc5c(cc4F)c(=O)c(C(=O)O)cn5C4CC4)CC3)nn2)c2ccccc21 has an MIC [1] of 8 µg/mL (≈ 12.7 µM).

Molecule O=C1C(=O)N(Cc2cn(CC(=O)N3CCN(c4cc5c(cc4F)c(=O)c(C(=O)O)cn5C4CC4)CC3)nn2)c2ccc(F)cc21 has an MIC [1] of 1 µg/mL (≈ 1.62 µM).

CO/N=C1/C(=O)N(Cc2cn(CC(=O)N3CCN(c4cc5c(cc4F)c(=O)c(C(=O)O)cn5C4CC4)CC3)nn2)c2ccc(C)cc21 was tested, and the MIC [1] was 8 µg/mL (≈ 12.4 µM).

Cc1ccc2c(c1)C(=O)C(=O)N2Cc1cn(CC(=O)N2CCN(c3cc4c(cc3F)c(=O)c(C(=O)O)cn4C3CC3)CC2)nn1 showed an MIC [1] of 2 µg/mL (≈ 3.26 µM).

Work on CCO/N=C1/C(=O)N(Cc2cn(CC(=O)N3CCN(c4cc5c(cc4F)c(=O)c(C(=O)O)cn5C4CC4)CC3)nn2)c2c(F)cccc21 yielded an MIC [1] of 32 µg/mL (≈ 48.4 µM).

O=C(O)c1cn(C2CC2)c2cc(N3CCNCC3)c(F)cc2c1=O [CIPROFLOXACIN] was tested, and the MIC [1] was 2 µg/mL (≈ 6.04 µM).

NNC(=O)c1ccncc1 [ISONIAZID] gave an MIC [1] greater than 64 µg/mL.

With CO[C@H]1/C=C/O[C@@]2(C)Oc3c(C)c(O)c4c(O)c(c(/C=N/N5CCN(C)CC5)c(O)c4c3C2=O)NC(=O)/C(C)=C\C=C\[C@H](C)[C@H](O)[C@@H](C)[C@@H](O)[C@@H](C)[C@H](OC(C)=O)[C@@H]1C [RIFAMPIN] the MIC [1] was greater than 64 µg/mL.
